The source made the active and inactive calls. The calls are words filed in the database; no cut-off is given here.
Experiments:
SR = assay: Antitumor activity against human SR cells assessed as cell growth inhibition at 10 uM incubated for 48 hrs by sulforhodamine B assay; format: functional; settings: read-out: GI
EKVX = assay: Antitumor activity against human EKVX cells assessed as cell growth inhibition at 10 uM incubated for 48 hrs by sulforhodamine B assay; format: functional; settings: read-out: GI
HCC 2998 = assay: Antitumor activity against human HCC2998 cells assessed as cell growth inhibition at 10 uM incubated for 48 hrs by sulforhodamine B assay; format: functional; settings: read-out: GI
HCT-15 = assay: Antitumor activity against human HCT15 cells assessed as cell growth inhibition at 10 uM incubated for 48 hrs by sulforhodamine B assay; format: functional; settings: read-out: GI
MDA-MB-435 = assay: Antitumor activity against human MDA-MB-435 cells assessed as cell growth inhibition at 10 uM incubated for 48 hrs by sulforhodamine B assay; format: functional; settings: read-out: GI
SK-MEL-28 = assay: Antitumor activity against human SK-MEL-28 cells assessed as cell growth inhibition at 10 uM incubated for 48 hrs by sulforhodamine B assay; format: functional; settings: read-out: GI
IGROV-1 = assay: Antitumor activity against human IGROV1 cells assessed as cell growth inhibition at 10 uM incubated for 48 hrs by sulforhodamine B assay; format: functional; settings: read-out: GI
MCF7 = assay: Antitumor activity against human MCF7 cells assessed as cell growth inhibition at 10 uM incubated for 48 hrs by sulforhodamine B assay; format: functional; settings: read-out: GI
MDA-MB-231 = assay: Antitumor activity against human MDA-MB-231/ATCC cells assessed as cell growth inhibition at 10 uM incubated for 48 hrs by sulforhodamine B assay; format: functional; settings: read-out: GI
A549 = assay: Cytotoxicity against human A549/ATCC assessed as reduction in cell viability at 10 uM after 48 hrs by MTT assay; format: functional
Calf thymus DNA [1] = assay: Binding affinity to calf thymus DNA assessed as binding constant by fluorescence emission spectroscopic analysis; format: nucleic-acid assay; settings: Bos taurus
Calf thymus DNA [2] = assay: Binding affinity to calf thymus DNA assessed as DNA intercalation by measuring decrease in intensity of CD band at 250 nm at 1 uM by CD spectroscopy; format: nucleic-acid assay; settings: Bos taurus
DNA = assay: Binding affinity to human DNA in blood assessed as quenching constant by fluorescence emission spectrum analysis; format: tissue-based
Albumin [3] = target: T1, Albumin (Bos taurus, UniProt P02769); assay: Binding affinity to bovine serum albumin assessed as Stern-Volmer quenching constant at 308K by fluorescence emission spectrum analysis; format: ADME, cell-free; settings: cattle
T1 sequence (P02769 whole entry): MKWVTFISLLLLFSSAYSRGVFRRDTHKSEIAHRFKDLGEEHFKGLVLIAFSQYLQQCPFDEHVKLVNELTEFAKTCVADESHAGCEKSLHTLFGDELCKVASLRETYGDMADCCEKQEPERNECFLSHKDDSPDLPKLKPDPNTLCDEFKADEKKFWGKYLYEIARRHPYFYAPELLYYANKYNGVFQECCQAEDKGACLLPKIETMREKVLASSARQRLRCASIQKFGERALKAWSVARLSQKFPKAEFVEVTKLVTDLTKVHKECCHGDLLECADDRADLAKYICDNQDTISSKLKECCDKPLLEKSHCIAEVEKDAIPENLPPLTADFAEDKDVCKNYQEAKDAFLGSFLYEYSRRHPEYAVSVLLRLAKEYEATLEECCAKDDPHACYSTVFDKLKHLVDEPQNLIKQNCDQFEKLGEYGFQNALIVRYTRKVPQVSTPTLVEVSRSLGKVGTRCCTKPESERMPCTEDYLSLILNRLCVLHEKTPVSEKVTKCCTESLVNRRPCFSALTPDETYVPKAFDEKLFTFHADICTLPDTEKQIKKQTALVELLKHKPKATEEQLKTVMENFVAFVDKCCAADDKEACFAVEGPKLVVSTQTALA

Albumin [4] = target: T1, Albumin; assay: Binding affinity to bovine serum albumin assessed as quenching constant at 298K by fluorescence emission spectrum analysis; format: ADME, cell-free; settings: cattle
Albumin [5] = target: T2, Albumin (Homo sapiens, UniProt P02768); assay: Binding affinity to human serum albumin assessed as decrease in emission peak intensity band at 348 nm at 0-13 uM by fluorescence emission spectroscopy; format: ADME, cell-free; settings: 0.348 µM
T2 sequence (P02768 whole entry): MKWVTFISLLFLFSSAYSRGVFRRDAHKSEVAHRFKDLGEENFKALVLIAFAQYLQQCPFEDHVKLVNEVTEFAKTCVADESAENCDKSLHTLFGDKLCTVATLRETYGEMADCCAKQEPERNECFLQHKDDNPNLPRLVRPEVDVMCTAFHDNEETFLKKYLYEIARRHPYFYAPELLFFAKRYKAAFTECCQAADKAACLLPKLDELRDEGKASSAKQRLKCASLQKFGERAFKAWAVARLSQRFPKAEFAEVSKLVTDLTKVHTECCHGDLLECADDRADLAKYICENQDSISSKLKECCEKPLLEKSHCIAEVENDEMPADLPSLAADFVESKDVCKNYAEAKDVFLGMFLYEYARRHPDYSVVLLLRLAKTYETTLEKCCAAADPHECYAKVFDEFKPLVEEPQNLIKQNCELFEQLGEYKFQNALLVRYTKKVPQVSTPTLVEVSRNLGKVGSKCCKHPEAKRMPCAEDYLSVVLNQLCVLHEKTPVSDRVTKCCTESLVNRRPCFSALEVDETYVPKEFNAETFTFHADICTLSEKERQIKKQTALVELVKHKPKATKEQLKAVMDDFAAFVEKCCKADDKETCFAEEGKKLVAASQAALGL

Albumin [6] = target: T2, Albumin; assay: Binding affinity to human serum albumin assessed as binding constant by fluorescence emission spectroscopy; format: ADME, cell-free
[7] = Ratio of Kb for human DNA in blood to Kb for calf thymus DNA

Q: Which inhibition of growth at 10 µM (SR) does the source give for `O=C1NC(=O)/C(=C/c2ccc(-c3nc4c5ccccc5c5ccccc5c4[nH]3)cc2)S1` here?
A: 79.2%

Q: What about the inhibition of growth at 10 µM (EKVX) of the same molecule?
A: 11.5%

Q: And the inhibition of growth at 10 µM (HCC 2998)?
A: < 10%

Q: And the inhibition of growth at 10 µM (HCT-15)?
A: 50%

Q: What about the inhibition of growth at 10 µM (MDA-MB-435) of the same molecule?
A: 67.4%

Q: What about the inhibition of growth at 10 µM (SK-MEL-28) of the same molecule?
A: 19.1%

Q: What about the inhibition of growth at 10 µM (IGROV-1) of the same molecule?
A: < 10%

Q: What about the inhibition of growth at 10 µM (MCF7) of the same molecule?
A: 46.1%

Q: What about the inhibition of growth at 10 µM (MDA-MB-231) of the same molecule?
A: 15.6%

Q: What about the Activity (A549) of the same molecule?
A: 78%

Q: And the Kb (Calf thymus DNA [1])?
A: 1.95 10^5/M

Q: And the Activity (Calf thymus DNA [2])?
A: Active

Q: And the Kq (DNA)?
A: 3.46 10^11/M/s

Q: And the KSV (Albumin [3])?
A: 8.15 10^5/M

Q: And the Kq (Albumin [4])?
A: 8.42 10^13/M/sec

Q: And the Activity (Albumin [5])?
A: Active

Q: And the Kb (Albumin [6])?
A: 7.29 10^6/M

Q: What about the Ratio [7] of the same molecule?
A: 2

— ChEMBL document CHEMBL4665624, “Synthesis of 5-(4-(1H-phenanthro[9,10-d]imidazol-2-yl)benzylidene)thiazolidine-2,4-dione as promising DNA and serum albumin-binding agents and evaluation of antitumor activity” (Eur J Med Chem, 2019)
